Drawing on patent US20250270200A1, “CTPS1 INHIBITORS AND USES THEREOF” (Nimbus Clotho, Inc., priority 2022, published 2025), this text covers IC50 for 21 compounds.

The assay has as its target T1, human CTPS1 (Homo sapiens, UniProt P17812).
T1 sequence (P17812 1-591): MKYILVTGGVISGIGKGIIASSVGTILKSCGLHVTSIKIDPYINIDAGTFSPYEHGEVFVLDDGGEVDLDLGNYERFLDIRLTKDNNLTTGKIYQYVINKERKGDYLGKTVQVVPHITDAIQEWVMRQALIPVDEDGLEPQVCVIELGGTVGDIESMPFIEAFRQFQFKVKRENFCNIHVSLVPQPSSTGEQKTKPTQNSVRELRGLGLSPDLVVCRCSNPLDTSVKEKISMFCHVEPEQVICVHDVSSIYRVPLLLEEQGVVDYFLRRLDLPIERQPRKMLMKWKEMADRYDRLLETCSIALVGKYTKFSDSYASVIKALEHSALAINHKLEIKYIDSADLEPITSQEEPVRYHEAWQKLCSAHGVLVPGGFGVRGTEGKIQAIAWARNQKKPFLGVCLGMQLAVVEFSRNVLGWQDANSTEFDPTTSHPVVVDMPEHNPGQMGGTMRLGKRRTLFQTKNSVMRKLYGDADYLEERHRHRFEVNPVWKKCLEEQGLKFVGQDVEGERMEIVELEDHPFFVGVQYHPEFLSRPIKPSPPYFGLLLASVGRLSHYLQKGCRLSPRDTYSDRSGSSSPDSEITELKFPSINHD
As to the kind of experiment: ADP-Glo assay, human CTPS1 enzyme inhibition. In kind it is biochemical. The following applies: wild-type human CTPS1, 25 nM enzyme; ADP-Glo; read-out: ADP-Glo_WT_hCTPS1—25 nM_IC50 (IC50). As for the experimental part: The enzyme inhibitory activities of the compounds of the invention against the target of interest were determined using the ADP-Glo™ assay (Promega). Assays for human CTPS1 and CTPS2 were performed in 1× assay buffer containing 50 mM HEPES (Life Technologies), 10 mM Mg2+, 5 mM KCl, 2 mM DTT, 0.01% F-127, pH to 7.4 accordingly. All reagents are from Sigma-Aldrich, unless specified otherwise. Purified human full length active N-terminal FLAG-8×HIS-TEV tagged CTPS1 (UniprotKB—P17812, […]-CTPS1[1-591]) was generated using a mammalian expression system at Viva Biotech (Shanghai) Ltd.
Purified human CTPS1 protein was prepared in 1× assay buffer to the final working protein concentration required for the reaction. A 2.5 μL volume per well of human CTPS 1 protein was mixed with 0.1 μL per well of test compound dissolved in DMSO and pre-incubated at 25 degrees C. for 10 minutes. 2.5 μL per well of the reaction precursors ATP (UltraPure ATP from ADP-Glo™ kit) and UTP were then added and pre-incubated for an additional 10 minutes at 25 degrees C. Finally, the reaction was initiated by the addition of 5 μL of the reaction precursors L-glutamine and GTP. The final concentration of all reaction components in the assay: ATP (120 μM), UTP (160 μM), GTP (60 μM), L-Glutamine (100 μM), DMSO (1%), hCTPS1 (25 nM). This mixture was incubated for an appropriate amount of time within the determined linear phase of the reaction at 25 degrees C. under sealed plate conditions with constant agitation at 500 revolutions per minute (rpm). ADP-Glo™ reagent was added for 60 minutes (10 μL per well) and subsequently ADP-Glo™ development reagent was added for 60 minutes (20 μL per well) prior to signal detection in a microplate reader (Envision Multilabel Reader, Perkin Elmer). Following each reagent addition over the course of the assay, assay plates were pulse centrifuged for 1 minute at 1000 rpm.
The enzyme converts ATP to ADP and the ADP-Glo™ reagent subsequently depletes any remaining ATP in the reaction system. The ADP-Glo™ detection reagents converts the ADP that has been produced by the enzyme back into ATP, which is then utilized as a substrate together with luciferin for the enzyme luciferase. Light generated by this chemiluminescent reaction is quantified and is directly proportional to the amount of ADP produced by the CTPS1 enzyme reaction. […]

By IC50 is commonly meant the concentration that gives 50% inhibition. Turning to `CCOc1cncc(-c2cnc(C(=O)N[C@H](c3cc(NS(=O)(=O)C4CC4)ccn3)[C@@H](C)CN3CCCCC3)s2)n1` (stereo in doubt) [I-54, N-((1S,2S)-1-(4-(cyclopropanesulfonamido)pyridin-2-yl)-2-methyl-3-(piperidin-1-yl)propyl)-5-(6-ethoxypyrazin-2-yl)thiazole-2-carboxamide], the IC50 lay in the range of 5 to 25 nM.
Take `CCOc1cncc(-c2cnc(C(=O)NCc3cc(NS(=O)(=O)C4CC4)ncn3)s2)n1` [I-5, N-((6-(cyclopropanesulfonamido)pyrimidin-4-yl)methyl)-5-(6-ethoxypyrazin-2-yl)thiazole-2-carboxamide]: the IC50 fell in the range of 5 to 25 nM.
For the compound `O=C(NC(CCN1CCCCC1)c1cc(NS(=O)(=O)C2CC2)ccn1)c1ncc(-c2cnn3ccc(Cl)cc23)s1` (stereo not drawn) [I-8, 5-(5-chloropyrazolo[1,5-a]pyridin-3-yl)-N-(1-(4-(cyclopropanesulfonamido)pyridin-2-yl)-3-(piperidin-1-yl)propyl)thiazole-2-carboxamide], the IC50 lay in the range of 25 to 50 nM.
With `CCOc1cncc(-c2cnc(C(=O)N[C@@H](c3cc(NS(=O)(=O)C4CC4)ccn3)C3CCOCC3)s2)n1` [I-19, (R)—N-((4-(cyclopropanesulfonamido)pyridin-2-yl)(tetrahydro-2H-pyran-4-yl)methyl)-5-(6-ethoxypyrazin-2-yl)thiazole-2-carboxamide], the IC50 was 5 to 25 nM.
For `CCOc1cncc(-c2cnc(C(=O)N[C@H](c3cc(NS(=O)(=O)C4CC4)ccn3)C3CCOCC3)s2)n1` [I-20, (S)—N-((4-(cyclopropanesulfonamido)pyridin-2-yl)(tetrahydro-2H-pyran-4-yl)methyl)-5-(6-ethoxypyrazin-2-yl)thiazole-2-carboxamide], the IC50 is 5 to 25 nM.
The result for `CCOc1cncc(-c2cnc(C(=O)N[C@H](COC)c3nccc(NS(=O)(=O)C4CC4)n3)s2)n1` [I-21, (S)-N-(1-(4-(cyclopropanesulfonamido)pyrimidin-2-yl)-2-methoxyethyl)-5-(6-ethoxypyrazin-2-yl)thiazole-2-carboxamide] reads 5 to 25 nM; that for `CCOc1cncc(-c2cnc(C(=O)N[C@@H](c3cc(NS(=O)(=O)C4CC4)ccn3)C(C)(C)CN(C)C)s2)n1` [I-43, (R)-N-(1-(4-(cyclopropanesulfonamido)pyridin-2-yl)-3-(dimethylamino)-2,2-dimethylpropyl)-5-(6-ethoxypyrazin-2-yl)thiazole-2-carboxamide], 5 to 25 nM.
Turning to `CCOc1cncc(-c2cnc(C(=O)N[C@@H](c3cc(NS(=O)(=O)C4CC4)ccn3)[C@H](C)OC)s2)n1` [I-44, N-((1S,2S)-1-(4-(cyclopropanesulfonamido)pyridin-2-yl)-2-methoxypropyl)-5-(6-ethoxypyrazin-2-yl)thiazole-2-carboxamide], the IC50 lay in the range of 5 to 25 nM.
Consider `CCOc1cncc(-c2cnc(C(=O)N[C@H](c3cc(NS(=O)(=O)C4CC4)ccn3)[C@@H](C)OC)s2)n1` [I-45, N-((1R,2R)-1-(4-(cyclopropanesulfonamido)pyridin-2-yl)-2-methoxypropyl)-5-(6-ethoxypyrazin-2-yl)thiazole-2-carboxamide], for which the IC50 lay in the range of 5 to 25 nM.
The result for `CCOc1cncc(-c2cnc(C(=O)N[C@@H](c3cc(NS(=O)(=O)C4CC4)ccn3)[C@@H](C)OC)s2)n1` [I-46, N-((1S,2R)-1-(4-(cyclopropanesulfonamido)pyridin-2-yl)-2-methoxypropyl)-5-(6-ethoxypyrazin-2-yl)thiazole-2-carboxamide] reads 5 to 25 nM.
Turning to `CCOc1cncc(-c2cnc(C(=O)NC(CC(C)(C)N(C)C)c3cc(NS(=O)(=O)C4CC4)ccn3)s2)n1` (stereo not drawn) [I-48, N-(1-(4-(cyclopropanesulfonamido)pyridin-2-yl)-3-(dimethylamino)-3-methylbutyl)-5-(6-ethoxypyrazin-2-yl)thiazole-2-carboxamide], the IC50 lay within 5 to 25 nM.
Regarding `CCOc1cncc(-c2cnc(C(=O)N[C@H](CC(C)(C)N(C)C)c3cc(NS(=O)(=O)C4CC4)ccn3)s2)n1` [I-49, (R)-N-(1-(4-(cyclopropanesulfonamido)pyridin-2-yl)-3-(dimethylamino)-3-methylbutyl)-5-(6-ethoxypyrazin-2-yl)thiazole-2-carboxamide], the IC50 lay in the range of 50 to 100 nM.
Turning to `CCOc1cncc(-c2cnc(C(=O)N[C@@H](CC(C)(C)N(C)C)c3cc(NS(=O)(=O)C4CC4)ccn3)s2)n1` [I-50, (S)-N-(1-(4-(cyclopropanesulfonamido)pyridin-2-yl)-3-(dimethylamino)-3-methylbutyl)-5-(6-ethoxypyrazin-2-yl)thiazole-2-carboxamide], the IC50 fell in the range of 5 to 25 nM.
As for `C[C@@H](CN1CCCCC1)[C@@H](NC(=O)c1ncc(-c2cnn3ccc(Cl)cc23)s1)c1cc(NS(=O)(=O)C2CC2)ccn1` [I-55, 5-(5-chloropyrazolo[1,5-a]pyridin-3-yl)-N-((1R,2S)-1-(4-(cyclopropanesulfonamido)pyridin-2-yl)-2-methyl-3-(piperidin-1-yl)propyl)thiazole-2-carboxamide], the IC50 is 50 to 100 nM.
`C[C@H](CN1CCCCC1)[C@H](NC(=O)c1ncc(-c2cnn3ccc(Cl)cc23)s1)c1cc(NS(=O)(=O)C2CC2)ccn1` [I-57, 5-(5-chloropyrazolo[1,5-a]pyridin-3-yl)-N-((1S,2R)-1-(4-(cyclopropanesulfonamido)pyridin-2-yl)-2-methyl-3-(piperidin-1-yl)propyl)thiazole-2-carboxamide]: the IC50 is 5 to 25 nM.
The result for `C[C@@H](CN1CCCCC1)[C@H](NC(=O)c1ncc(-c2cnn3ccc(Cl)cc23)s1)c1cc(NS(=O)(=O)C2CC2)ccn1` [I-58, 5-(5-chloropyrazolo[1,5-a]pyridin-3-yl)-N-((1S,2S)-1-(4-(cyclopropanesulfonamido)pyridin-2-yl)-2-methyl-3-(piperidin-1-yl)propyl)thiazole-2-carboxamide] reads 50 to 100 nM; that for `CCOc1cncc(-c2cnc(C(=O)N[C@H](c3cc(NS(=O)(=O)C4CC4)ccn3)[C@H]3CCCO3)s2)n1` [I-59, N-((R)-(4-(cyclopropanesulfonamido)pyridin-2-yl)((R)-tetrahydrofuran-2-yl)methyl)-5-(6-ethoxypyrazin-2-yl)thiazole-2-carboxamide], 25 to 50 nM.
With `CCOc1cncc(-c2cnc(C(=O)N[C@H](c3cc(NS(=O)(=O)C4CC4)ccn3)[C@@H]3CCCO3)s2)n1` [I-60, N-((R)-(4-(cyclopropanesulfonamido)pyridin-2-yl)((S)-tetrahydrofuran-2-yl)methyl)-5-(6-ethoxypyrazin-2-yl)thiazole-2-carboxamide], the IC50 lay within 5 to 25 nM.
The result for `CCOc1cncc(-c2cnc(C(=O)N[C@@H](c3cc(NS(=O)(=O)C4CC4)ccn3)[C@@H]3CCCO3)s2)n1` [I-61, N-((S)-(4-(cyclopropanesulfonamido)pyridin-2-yl)((S)-tetrahydrofuran-2-yl)methyl)-5-(6-ethoxypyrazin-2-yl)thiazole-2-carboxamide] reads 5 to 25 nM; that for `CCOc1cncc(-c2cnc(C(=O)N[C@@H](c3cc(NS(=O)(=O)C4CC4)ccn3)[C@H]3CCCO3)s2)n1` [I-62, N-((S)-(4-(cyclopropanesulfonamido)pyridin-2-yl)((R)-tetrahydrofuran-2-yl)methyl)-5-(6-ethoxypyrazin-2-yl)thiazole-2-carboxamide], 5 to 25 nM; that for `CCOc1cncc(-c2cnc(C(=O)N(C)[C@H](c3cc(NS(=O)(=O)C4CC4)ccn3)[C@H]3CCOC3)s2)n1` [I-63, N-((S)-(4-(cyclopropanesulfonamido)pyridin-2-yl)((R)-tetrahydrofuran-3-yl)methyl)-5-(6-ethoxypyrazin-2-yl)-N-methylthiazole-2-carboxamide], more than 100 nM.
